Laboratory results published in patent publication US4556676A, “Antidepressant derivatives of trans-4-phenyl-1,2,3,4-tetrahydro-1-naphthalenamine” (priority 1980, dated 1985).
Structures can show the parent of a compound that is named as a salt. Where two headings read alike, the source gives them in different places.

Tests used:
[1] = test system: mice; test: Reduction of behavioral despair in vivo (modified Porsolt mouse swim test); set-up: species or system Swiss-Webster CD male mice; conditions: sc, read-out: MPE50
Procedure: A number of Swiss-Webster CD male mice weighing 25-30 g. (Charles River Laboratories, Inc.; Wilmington, Mass.) were housed under standard laboratory conditions for at least one week prior to experimentation. […] One hour later the mice were placed individually in 1 liter beakers containing 7 cm. of 25° C. water. Beginning at 2 min. after immersion, each mouse was observed every 30 sec. for the presence of immobility, characterized as floating motionless in the water. A total of ten observations were made, each being scored as "0=animal moving, swimming, attempting to escape" or "1=animal immobile". The number of positive observations for each mouse was then totaled and a mean immobility score calculated for the group of ten.

[2] = test system: 5-hydroxytryptophan-induced tremors; test: Potentiation of 5-hydroxytryptophan-induced behavioral symptoms (tremors) in vivo; set-up: species or system Swiss-Webster CD male mice; conditions: for ED50: Mus musculus; for ED50 (tremors): then 100 mg./kg. i.p. 5HTP one hour later, Hydrochloride
Procedure: The mice were rated for the presence of this symptom by a "blinded observer" at 10-20 min. after 5HTP treatment.

[3] = test system: synaptosomal uptake of dopamine (DA); test: Blockade of synaptosomal uptake of dopamine (DA) in vitro, rat corpus striatum; format: biochemical, Sprague-Dawley CD male rats; conditions: rat corpus striatum synaptosomes
Procedure: (§1) Sprague-Dawley CD male rats weighing 180-220 g. (Charles River Laboratories, Inc.; Wilmington, Mass.) were used in this procedure. A crude synaptosomal fraction of rat corpus striatum (for 5HT and DA uptake) or hypothalmus (for NE uptake) tissue was prepared by homogenizing tissue (25 ml./g. wet) in ice-cold 0.32M sucrose containing 1 mg./ml. glucose, 0.0001M EDTA and tris(hydroxymethyl)aminomethane to pH 7.4. The homogenate was centrifuged at 1000×g for 10 min. at 0°-4° C., the pellet discarded and the supernatant centrifuged at 17,000×g for 20 min. at 0°-4° C. The resulting pellet was resuspended in the ice-cold 0.32M sucrose pH 7.4 solution at 10 ml./g. original tissue (wet) for corpus striatum and 5 ml./g. original tissue (wet) for hypothalmus. […] Duplicate 0.1 ml. aliquots of the tissue suspension were incubated for 10 min. at 37° C. with 0.02 ml. of a solution containing a known quantity of the named test compound and 1.0 ml. of the incubation buffer containing additionally 1 mg./ml. glucose and 0.0001 mM labeled monoamine (^14 C-5HT, ^14 C-DA or ^3 H-NE). After incubation, the mixtures were filtered through 0.45 micron Millipore filters and the filters washed with the incubation buffer. […] Uptake was calculated as picomoles 5HT, DA or NE per mg. protein (protein was determined by measurement with Folin phenol reagent).

[4] = test system: synaptosomal uptake of norepinephrine (NE); test: Blockade of synaptosomal uptake of norepinephrine (NE) in vitro, rat hypothalmus; format: biochemical, Sprague-Dawley CD male rats; conditions: rat hypothalmus synaptosomes
Procedure: as §1

[5] = test system: synaptosomal uptake of serotonin (5HT); test: Blockade of synaptosomal uptake of serotonin (5HT) in vitro, rat corpus striatum; format: biochemical, Sprague-Dawley CD male rats; conditions: rat corpus striatum synaptosomes, 5HT uptake
Procedure: as §1

[6] = test system: uptake of serotonin; conditions: known drugs; cited from earlier work
[7] = mice, oral, no observed tremors at 32 mg./kg., highest dose tested, read-out: ED50 (tremors), footnoted
[8] = mice, subcutaneous, 1 hour before test
[9] = po, 1 h, read-out: ED50 (tremors), mice, oral, then 100 mg./kg. i.p. 5HTP one hour later

Row | SMILES | IC50 [3] | IC50 [4] | further results
1 | CN[C@@H]1CC[C@@H](c2ccc(Cl)c(Cl)c2)c2ccccc21 (relative stereo) [Example 1, Trans-(1S)(1R)-N-methyl-4-(3,4-diclorophenyl)-1,2,3,4-tetrahydro-1-naphthalenamine Hydrochloride] | – | – | ED50 ([1]; 1 h): 1.5 mg/kg; ED50 ([2]; po, 1 h, read-out: ED50 (oral dosage level at which tremors elicited), mice, oral, then 100 mg./kg. i.p. 5HTP one hour later, tremors): 3.2 to 10 mg/kg
2 | CN[C@@H]1CC[C@@H](c2ccc(Cl)cc2)c2ccccc21.Cl (relative stereo) [Example 4, Trans-N-methyl-4-(4-chlorophenyl)-1,2,3,4-tetrahydro-1-naphthalenamine Hydrochloride] | – | – | IC50 ([3]; Hydrochloride): 110 nM; ED50 (tremors) ([2]; mice, oral): 10-32 mg./kg. - oral
3 | CN[C@@H]1CC[C@@H](c2ccc(Cl)cc2)c2ccccc21.Cl (relative stereo) [Example 5, Trans-N-methyl-4-(4-chlorophenyl)-1,2,3,4-tetrahydro-1-naphthalenamine Hydrochloride] | – | – | ED50 [2, 7]: > 32 mg/kg
4 | CN[C@@H]1CC[C@@H](c2ccc(Cl)cc2)c2ccccc21.Cl (relative stereo) [Example 6, Trans-N-methyl-4-(4-chlorophenyl)-1,2,3,4-tetrahydro-1-naphthalenamine Hydrochloride] | – | – | ED50 [1, 8]: 0.88 mg/kg; ED50 (tremors) ([2]; mice, oral): 3.2-10 mg./kg. - oral
5 | CN[C@@H]1CC[C@@H](c2ccc(F)cc2)c2ccccc21 (relative stereo) [Example 7, Trans-(1S)(1R)-N-methyl-4-(4-fluorophenyl)-1,2,3,4-tetrahydro-1-naphthalenamine Hydrochloride] | 220 nM | 27 nM | ED50 ([1]; 1 h): 2.3 mg/kg; ED50 ([2]; po, read-out: ED50 (tremors), footnoted, mice, oral, no observed tremors at 32 mg./kg., highest dose tested): > 32 mg/kg
6 | CN[C@@H]1CC[C@@H](c2ccc(C(F)(F)F)cc2)c2ccccc21 (relative stereo) [Example 8] | 4400 nM | 690 nM | ED50 [1, 8]: > 10 mg/kg; ED50 [2, 9]: 10 to 32 mg/kg
7 | CN[C@@H]1CC[C@@H](c2cccc(C(F)(F)F)c2)c2ccccc21 (relative stereo) [Example 9, Trans-(1S)(1R)-N-methyl-4-(3-trifluoromethylphenyl)-1,2,3,4-tetrahydro-1-naphthalenamine Maleate] | 2600 nM | 260 nM | ED50 ([1]; 1 h): > 32 mg/kg; ED50 [2, 9]: 10 to 32 mg/kg
8 | CN[C@@H]1CC[C@@H](c2ccc(Cl)c(C(F)(F)F)c2)c2ccccc21 (relative stereo) [Example 10] | 7300 nM | – | ED50 [1, 8]: < 32 mg/kg; ED50 [2, 9]: 10 to 32 mg/kg
9 | CN[C@@H]1CC[C@@H](c2ccc(Cl)cc2)c2ccc(Cl)cc21 (relative stereo) [Example 11, Trans-(1S)(1R)-N-methyl-4-(4-chlorophenyl)-7-chloro-1,2,3,4-tetrahydro-1-naphthalenamine Hydrochloride] | 45 nM | 28 nM | IC50 [5]: 160 nM; ED50 [1, 8]: 6.4 mg/kg
10 | CN[C@@H]1CC[C@@H](c2ccc(Br)cc2)c2ccccc21 (relative stereo) [Example 12, Trans-(1S)(1R)-N-methyl-4-(4-bromophenyl)-1,2,3,4-tetrahydro-1-naphthalenamine Hydrochloride] | 80 nM | 29 nM | IC50 [5]: 90 nM
11 | CN[C@@H]1CC[C@@H](c2ccc(OC)cc2)c2ccccc21 (relative stereo) [Example 13, Trans-(1S)(1R)-N-methyl-4-(4-methoxyphenyl)-1,2,3,4-tetrahydro-1-naphthalenamine Hydrochloride] | 400 nM | 150 nM | –
12 | CN[C@@H]1CC[C@@H](c2ccccc2OC)c2ccccc21 (relative stereo) [Example 14] | 5700 nM | 480 nM | IC50 [5]: 4500 nM; ED50 [1, 8]: > 32 mg/kg; ED50 [2, 7]: > 32 mg/kg
13 | CN[C@@H]1CC[C@@H](c2cccc(OC)c2)c2ccccc21 (relative stereo) [Example 15] | 530 nM | 60 nM | IC50 [5]: 340 nM
14 | CN[C@@H]1CC[C@@H](c2ccc(Cl)cc2Cl)c2ccccc21 (relative stereo) [Example 16, Trans-(1S)(1R)-N-methyl-4-(2,4-dichlorophenyl)-1,2,3,4-tetrahydro-1-naphthalenamine Hydrochloride] | 6100 nM | – | –
15 | CN[C@@H]1CC[C@@H](c2ccc(Cl)cc2)c2ccc(OC)cc21 (relative stereo) [Example 17, Trans-(1S)(1R)-N-methyl-4-(4-chlorophenyl)-7-methoxy-1,2,3,4-tetrahydro-1-naphthalenamine Hydrochloride] | 42 nM | 17 nM | IC50 [5]: 150 nM
16 | CN(C)[C@@H]1CC[C@@H](c2cccc(C(F)(F)F)c2)c2ccccc21 (relative stereo) [Example 18, Trans-(1S)(1R)-N,N-dimethyl-4-(3-trifluoromethylphenyl)-1,2,3,4-tetrahydro-1-naphthalenamine Maleate] | 6100 nM | 1400 nM | IC50 [5]: 220 nM
17 | CN(C)[C@@H]1CC[C@@H](c2ccc(C(F)(F)F)cc2)c2ccccc21 (relative stereo) [Example 19] | 9800 nM | 4700 nM | ED50 [2, 9]: 3.2 to 10 mg/kg
18 | CN(C)[C@@H]1CC[C@@H](c2ccc(Cl)cc2)c2ccccc21 (relative stereo) [Example 20] | 380 nM | 130 nM | –
19 | CN(C)[C@@H]1CC[C@@H](c2ccc(Cl)c(Cl)c2)c2ccccc21 (relative stereo) [Example 20a] | 170 nM | – | –
20 | CN[C@@H]1CC[C@@H](c2ccccc2)c2ccccc21 (relative stereo) [I, Trans-(1S)(1R)-N-- methyl-4-phenyl-1,2,3,4-tetrahydro-1-naphthalenamine hydrochloride, reference compound] | 210 nM | 37 nM | IC50 [5]: 1500 nM
21 | CN(C)[C@@H]1CC[C@@H](c2ccccc2)c2ccccc21 (relative stereo) [II, Trans-(1S)(1R)-N,N-- dimethyl-4-phenyl-1,2,3,4-tetrahydro-1-naphthalenamine hydrochloride, reference compound] | 840 nM | 140 nM | –
22 | N[C@@H](Cc1c[nH]c2ccc(O)cc12)C(=O)O [Example 5HTP, 5-hydroxytryptophan, reference compound] | – | – | behavioral effects of 5HTP by itself ([2]; mice, 100 mg./kg. i.p. 5HTP alone): no clear behavioral effects
23 | COCCCC/C(=N\OCCN)c1ccc(C(F)(F)F)cc1 [fluvoxamine] | – | – | selective block of uptake of serotonin (compared to norepinephrine blockade) [6]: selectively block the uptake of serotonin
24 | CN(C)C/C=C(/c1ccc(Br)cc1)c1cccnc1 [zimelidine] | – | – | selective block of uptake of serotonin (compared to norepinephrine blockade) [6]: selectively block the uptake of serotonin
